Test results as given in patent US20250108038A1 (priority 2023, published 2025).
Like-named read-outs stand apart in the source and are kept apart here.

Assays:
[1] = type: physicochemical
Protocol: All conditions and stock preparation procedures were identical to the conditions applied in the transporter assays (Table 74, Table 75 and Table 76). […] A follow-up assay was carried out at 7 concentrations in order to correct the nominal concentrations for the IC50 calculations (Table 78). Where NSB was observed (>20% loss) the assay concentrations were corrected according to the result of the respective NSB assay.
All conditions and stock preparation procedures were identical to the conditions applied in the transporter assays.
Samples (1.5×C0 or Total) were immediately taken after mixing to determine the total initial concentrations. The assay mixes were pre-incubated for 15 minutes at 37° C. and at 32° C. in case of BCRP and MDR1. After the pre-incubation step the assay mixes were 1.5-times diluted with (pre-warmed) transport buffer reaching the final nominal concentrations of the compounds in the VT assay and then were further incubated at 37° C. or 32° C. for BCRP and MDR1 and sampled in the end of incubation (timc).
The aqueous buffer was mixed, and samples (C0 or Total) were immediately taken for determining the total initial concentrations. The helper plate was pre-warmed for 15 minutes at 37° C. The pre-warmed aliquots of the aqueous buffers with the test articles (50 μL) were transferred from the helper plate into the wells of another 96-well plate (assay plate) and incubated for 30 minutes (pre-incubation) then removed from the wells. Thereafter the same wells of the assay plate were dosed again with other aliquots of the aqueous buffers with the test articles and were further incubated in the assay plate at 37° C. and finally sampled (tinc).

rat red blood cells = experiment: Hemolysis study in rat blood; type: cell-based; conditions: 60 min, 37° C.; for % RBC lysis (hemolytic potential): test articles 25, 50, 100 μM, amphotericin B 1, 10, 30, 100 μM
Protocol: FIG. 6A. […] Compound I-19 in rat blood. Red blood cells were isolated from whole blood and resuspended in PBS. […] (final concentrations 25, 50, and 100 μM) and the mixtures were incubated at 37° C. for 60 min. After the incubation, the samples were centrifuged and the absorbance of 100 μL of supernatant was read at 410 nm. % RBC lysis is expressed relative to 100% lysis control. Values represent mean+SEM of n=3 separate experiments.
FIG. 6B. […] Compound I-19 in rat blood. Red blood cells were isolated from whole blood and resuspended in PBS. […] (final concentrations 25, 50, and 100 μM) and the mixtures were incubated at 37° C. for 60 min. After the incubation, the samples were centrifuged and the absorbance of 100 μl of supernatant was read at 410 nm. % RBC lysis is expressed relative to 100% lysis control. Values represent mean+SEM of n=3 separate experiments.
FIG. 6C. Hemolytic Potential of Amphotericin B in rat blood (positive assay control). Red blood cells were isolated from whole blood and resuspended in PBS. 190 μL of diluted RBC suspension and 10 μL of amphotericin B solutions were mixed at 0 min. (final concentrations 1, 10, 30, and 100 μM) and the mixtures were incubated at 37° C. for 60 min. After the incubation, the samples were centrifuged and the absorbance of 100 μL of supernatant was read at 410 nm. % RBC lysis is expressed relative to 100% lysis control. Values represent mean+SEM of n=3 separate experiments.
To a clear 96-well V-bottom polystyrene plate, the test articles (10 μL) and the diluted RBCs (190 μL) from human or rat blood were mixed for final concentrations of 25, 50, and 100 μM. The reaction mixture was incubated at 37° C. for 60 min. Following the exposure period, the plates were centrifuged. After centrifugation, 70 μL of supernatant (without disturbing the pellet) was transferred to a clean and clear polystyrene flat bottomed 96-well plate and the absorbance of the sample at a single wavelength was measured using a BioTech Synergy H1 Plate Reader at a wavelength of 410 nm. The positive control for this assay was amphotericin B test at concentrations of 1, 10, 30, and 100 μM.

[2] = BCRP, BSEP and MDR1 VT inhibition assay setup
[3] = HBSS (pH 7.4) and KH (pH 8.0) uptake assay buffers
[4] = HBSS (pH 7.4) uptake buffer, 37° C., nominal 3.00 μM
[5] = HBSS (pH 7.4) uptake buffer, 37° C., nominal 30.00 μM
[6] = KH (pH 8.0) uptake buffer, 37° C., nominal 3.00 μM
[7] = KH (pH 8.0) uptake buffer, 37° C., nominal 30.00 μM
[8] = Transport buffer with sucrose (pH 7.4), BCRP and MDR1 VT, 32° C., nominal C0 5.00 μM
[9] = Transport buffer with sucrose (pH 7.4), BCRP and MDR1 VT, 32° C., nominal C0 50.00 μM
[10] = HBSS (pH 7.4) uptake buffer, 37° C., nominal 10.00 μM
[11] = HBSS (pH 7.4) uptake buffer, 37° C., nominal 100.00 μM
[12] = HBSS (pH 7.4), 37° C., nominal 0.412 μM, IC50 determination
[13] = HBSS (pH 7.4), 37° C., nominal 1.235 μM, IC50 determination
[14] = HBSS (pH 7.4), 37° C., nominal 3.704 μM, IC50 determination
[15] = HBSS (pH 7.4), 37° C., nominal 11.11 μM, IC50 determination
[16] = HBSS (pH 7.4), 37° C., nominal 33.33 μM, IC50 determination
[17] = HBSS (pH 7.4), 37° C., nominal 100.00 μM, IC50 determination
[18] = KH (pH 8.0) uptake buffer, 37° C., nominal 10.000 μM
[19] = KH (pH 8.0) uptake buffer, 37° C., nominal 100.000 μM
[20] = KH (pH 8.0), 37° C., nominal 0.412 μM, IC50 determination
[21] = KH (pH 8.0), 37° C., nominal 1.235 μM, IC50 determination
[22] = KH (pH 8.0), 37° C., nominal 3.704 μM, IC50 determination
[23] = KH (pH 8.0), 37° C., nominal 11.11 μM, IC50 determination
[24] = KH (pH 8.0), 37° C., nominal 33.33 μM, IC50 determination
[25] = KH (pH 8.0), 37° C., nominal 100.00 μM, IC50 determination
[26] = Transport buffer (pH 7.4) for BSEP VT inhibition assay, 37° C., nominal C0 10.00 μM
[27] = Transport buffer (pH 7.4) for BSEP VT inhibition assay, 37° C., nominal C0 100.00 μM
[28] = Transport buffer with sucrose (pH 7.4) for BCRP and MDR1 VT inhibition assay, 32° C., nominal C0 10.00 μM
[29] = Transport buffer with sucrose (pH 7.4) for BCRP and MDR1 VT inhibition assay, 32° C., nominal C0 100.00 μM

OC1(c2ccc(Cl)cc2)c2ccccc2C2=NCCN21 (centres unmarked) [Compound A, 5-(4-chlorophenyl)-2,3-dihydroimidazo[1,2-b]isoindol-5-ol, reference compound]
Non-specific binding (NSB) [1, 2]: did not show any NSB | Non-specific binding (NSB) [1, 3]: did not show any NSB | Concentration after incubation [1, 4]: 1.85 ± 0.13 µM | Loss of Compound A during the NSB assay [1, 4]: 14% | Measured dosing concentrations [1, 4]: 2.16 ± 0.05 µM | Concentration after incubation [1, 5]: 17.66 ± 0.35 µM | Loss of Compound A during the NSB assay [1, 5]: 15% | Measured dosing concentrations [1, 5]: 20.71 ± 0.67 µM | Concentration after incubation [1, 6]: 1.86 ± 0.06 µM | Loss of Compound A during the NSB assay [1, 6]: 20% | Measured dosing concentrations [1, 6]: 2.31 ± 0.11 µM | Concentration after incubation [1, 7]: 18.15 ± 0.42 µM | Loss of Compound A during the NSB assay [1, 7]: 18% | Measured dosing concentrations [1, 7]: 22.13 ± 0.61 µM | Concentration after incubation (tinc) [1, 8]: 6.27 ± 0.69 µM | Loss of Compound A during the NSB assay [1, 8]: 3% | Measured dosing concentrations ([…] C0) [1, 8]: 9.65 ± 1.52 µM | Concentration after incubation (tinc) [1, 9]: 55.92 ± 2.44 µM | Loss of Compound A during the NSB assay [1, 9]: −2% | Measured dosing concentrations ([…] C0) [1, 9]: 82.20 ± 3.76 µM

COCCOC1(c2ccc(Cl)cc2)c2ccccc2C2=NCCN21 (centres unmarked) [Compound I-4]
EC50 (% RBC lysis) (rat red blood cells): outside the concentration range tested | % RBC lysis (hemolytic potential) (rat red blood cells): no detectable hemolysis

Clc1ccc(C2(OCC3OCCO3)c3ccccc3C3=NCCN32)cc1 (centres unmarked) [Compound I-19]
Non-specific binding (NSB) [1, 2]: did not show any loss due to plastic binding | Non-specific binding (NSB) [1, 3]: more than 20% | Concentration after incubation [1, 10]: 5.98 ± 0.13 µM | Loss of Compound I-19 during the NSB assay [1, 10]: 34% | Measured dosing concentrations [1, 10]: 8.99 ± 0.60 µM | Concentration after incubation [1, 11]: 59.43 ± 5.59 µM | Loss of Compound I-19 during the NSB assay [1, 11]: 23% | Measured dosing concentrations [1, 11]: 76.99 ± 6.62 µM | Concentration after incubation [1, 12]: 0.35 ± 0.03 µM | Loss of Compound I-19 during the NSB assay [1, 12]: 39% | Measured dosing concentrations [1, 12]: 0.57 ± 0.14 µM | Concentration after incubation [1, 13]: 0.83 ± 0.07 µM | Loss of Compound I-19 during the NSB assay [1, 13]: 30% | Measured dosing concentrations [1, 13]: 1.18 ± 0.09 µM | Concentration after incubation [1, 14]: 2.49 ± 0.18 µM | Loss of Compound I-19 during the NSB assay [1, 14]: 49% | Measured dosing concentrations [1, 14]: 4.84 ± 0.73 µM | Concentration after incubation [1, 15]: 6.86 ± 0.20 µM | Loss of Compound I-19 during the NSB assay [1, 15]: 29% | Measured dosing concentrations [1, 15]: 9.59 ± 1.50 µM | Concentration after incubation [1, 16]: 17.44 ± 3.56 µM | Loss of Compound I-19 during the NSB assay [1, 16]: 27% | Measured dosing concentrations [1, 16]: 23.77 ± 2.59 µM | Concentration after incubation [1, 17]: 34.49 ± 3.00 µM | Loss of Compound I-19 during the NSB assay [1, 17]: 12% | Measured dosing concentrations [1, 17]: 38.99 ± 3.97 µM | Concentration after incubation [1, 18]: 5.54 ± 0.13 µM | Loss of Compound I-19 during the NSB assay [1, 18]: 36% | Measured dosing concentrations [1, 18]: 8.68 ± 0.34 µM | Concentration after incubation [1, 19]: 20.35 ± 1.94 µM | Loss of Compound I-19 during the NSB assay [1, 19]: 33% | Measured dosing concentrations [1, 19]: 30.52 ± 1.33 µM | Concentration after incubation [1, 20]: 0.27 ± 0.02 µM | Loss of Compound I-19 during the NSB assay [1, 20]: 39% | Measured dosing concentrations [1, 20]: 0.44 ± 0.10 µM | Concentration after incubation [1, 21]: 0.73 ± 0.04 µM | Loss of Compound I-19 during the NSB assay [1, 21]: 34% | Measured dosing concentrations [1, 21]: 1.10 ± 0.10 µM | Concentration after incubation [1, 22]: 1.68 ± 0.26 µM | Loss of Compound I-19 during the NSB assay [1, 22]: 36% | Measured dosing concentrations [1, 22]: 2.63 ± 1.34 µM | Concentration after incubation [1, 23]: 4.05 ± 0.49 µM | Loss of Compound I-19 during the NSB assay [1, 23]: 45% | Measured dosing concentrations [1, 23]: 7.32 ± 3.86 µM | Concentration after incubation [1, 24]: 12.58 ± 1.30 µM | Loss of Compound I-19 during the NSB assay [1, 24]: 39% | Measured dosing concentrations [1, 24]: 20.72 ± 2.88 µM | Concentration after incubation [1, 25]: 34.06 ± 2.30 µM | Loss of Compound I-19 during the NSB assay [1, 25]: 25% | Measured dosing concentrations [1, 25]: 45.32 ± 9.94 µM | Concentration after incubation (tinc) [1, 26]: 12.92 ± 0.21 µM | Loss of Compound I-19 during the NSB assay [1, 26]: −4% | Measured dosing concentrations ([…] C0) [1, 26]: 18.55 ± 0.06 µM | Concentration after incubation (tinc) [1, 27]: 122.52 ± 9.60 µM | Loss of Compound I-19 during the NSB assay [1, 27]: −13% | Measured dosing concentrations ([…] C0) [1, 27]: 162.83 ± 11.51 µM | Concentration after incubation (tinc) [1, 28]: 13.10 ± 1.26 µM | Loss of Compound I-19 during the NSB assay [1, 28]: −11% | Measured dosing concentrations ([…] C0) [1, 28]: 17.68 ± 0.42 µM | Concentration after incubation (tinc) [1, 29]: 124.55 ± 5.96 µM | Loss of Compound I-19 during the NSB assay [1, 29]: −12% | Measured dosing concentrations ([…] C0) [1, 29]: 167.14 ± 11.84 µM | Concentration after incubation ([1]; pH 7.4): 0.15 ± 0.01 µM | Loss of Compound I-19 during the NSB assay ([1]; pH 7.4): 33% | Measured dosing concentrations ([1]; pH 7.4): 0.23 ± 0.02 µM | Concentration after incubation ([1]; pH 8): 0.10 ± 0.01 µM | Loss of Compound I-19 during the NSB assay ([1]; pH 8): 41% | Measured dosing concentrations ([1]; pH 8): 0.17 ± 0.02 µM | EC50 (% RBC lysis) (rat red blood cells): outside the concentration range tested | % RBC lysis (hemolytic potential) (rat red blood cells): no detectable hemolysis
